Patent US20210198277A1, “AMINE-SUBSTITUTED ARYL OR HETEROARYL COMPOUNDS” (Epizyme, Inc., priority 2016, published 2021)
Like-named read-outs stand apart in the source and are kept apart here.

What was measured:
human EHMT2 913-1193 = molecular target: T1, human EHMT2 913-1193 (Homo sapiens, UniProt Q96KQ7); assay: EHMT2 enzyme assay on histone peptide substrate (EHMT2 PEP); format: biochemical; settings: Table II; read-out: EHMT2 PEP (IC50 μM)
T1 construct: recombinant purified human EHMT2 913-1193, Viva; purchased Viva
T1 sequence (Q96KQ7 913-1193): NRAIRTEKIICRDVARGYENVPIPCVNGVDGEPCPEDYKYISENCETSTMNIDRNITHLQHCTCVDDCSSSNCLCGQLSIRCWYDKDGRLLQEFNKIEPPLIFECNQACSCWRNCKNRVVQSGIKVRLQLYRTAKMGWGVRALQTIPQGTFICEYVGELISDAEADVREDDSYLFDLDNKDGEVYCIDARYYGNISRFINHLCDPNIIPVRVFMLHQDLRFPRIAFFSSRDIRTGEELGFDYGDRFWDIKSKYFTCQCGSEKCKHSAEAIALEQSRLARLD
How it was run: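 Radiometric methyltransferase read-out: ^3H-methyl transfer from ^3H-SAM onto biotinylated histone peptide, captured on streptavidin Flashplates after 60 min reaction at room temperature. Enzyme 0.031 nM, preincubated 30 min with inhibitor; buffer 20 mM Bicine pH 7.5 with 1 mM TCEP; top compound concentration 50 μM final, 2% DMSO.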

EHMT1 = molecular target: T2, EHMT1 (Homo sapiens, UniProt Q9H9B1); assay: EHMT1 enzyme assay on peptide substrate (EHMT1 PEP); format: biochemical; settings: Table II
T2 sequence (Q9H9B1 1-1298): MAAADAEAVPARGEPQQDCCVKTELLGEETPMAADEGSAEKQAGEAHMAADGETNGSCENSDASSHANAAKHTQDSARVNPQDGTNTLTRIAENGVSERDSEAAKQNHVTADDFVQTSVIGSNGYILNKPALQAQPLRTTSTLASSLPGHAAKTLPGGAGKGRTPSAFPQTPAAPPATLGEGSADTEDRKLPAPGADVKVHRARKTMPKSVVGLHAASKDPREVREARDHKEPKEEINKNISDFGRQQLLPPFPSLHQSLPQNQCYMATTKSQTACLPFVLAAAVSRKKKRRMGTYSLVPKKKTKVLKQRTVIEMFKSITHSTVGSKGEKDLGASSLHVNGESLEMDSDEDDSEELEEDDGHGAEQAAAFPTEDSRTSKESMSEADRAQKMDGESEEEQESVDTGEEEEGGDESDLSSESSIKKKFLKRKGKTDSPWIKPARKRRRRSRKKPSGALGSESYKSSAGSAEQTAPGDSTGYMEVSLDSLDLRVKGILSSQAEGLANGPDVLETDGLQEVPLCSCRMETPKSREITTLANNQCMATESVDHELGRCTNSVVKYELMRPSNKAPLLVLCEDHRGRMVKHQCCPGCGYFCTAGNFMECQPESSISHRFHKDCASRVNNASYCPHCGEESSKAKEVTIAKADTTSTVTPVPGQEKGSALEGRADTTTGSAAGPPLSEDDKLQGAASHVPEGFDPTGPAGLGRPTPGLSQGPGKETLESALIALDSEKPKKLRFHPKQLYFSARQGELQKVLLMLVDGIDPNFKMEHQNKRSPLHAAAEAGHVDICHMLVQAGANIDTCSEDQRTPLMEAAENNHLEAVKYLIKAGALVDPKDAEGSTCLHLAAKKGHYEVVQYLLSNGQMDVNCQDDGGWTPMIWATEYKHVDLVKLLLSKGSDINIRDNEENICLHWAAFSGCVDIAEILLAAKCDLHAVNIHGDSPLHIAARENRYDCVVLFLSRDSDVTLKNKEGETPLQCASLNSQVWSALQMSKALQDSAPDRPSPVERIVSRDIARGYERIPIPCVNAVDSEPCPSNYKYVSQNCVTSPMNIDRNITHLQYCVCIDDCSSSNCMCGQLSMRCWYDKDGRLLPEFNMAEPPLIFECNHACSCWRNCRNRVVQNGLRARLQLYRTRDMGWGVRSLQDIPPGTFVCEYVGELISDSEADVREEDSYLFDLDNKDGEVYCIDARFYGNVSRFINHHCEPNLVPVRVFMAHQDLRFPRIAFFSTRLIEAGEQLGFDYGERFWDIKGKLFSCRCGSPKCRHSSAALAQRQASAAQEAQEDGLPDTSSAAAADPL

Row | SMILES | IC50 (human EHMT2 913-1193) [µM] | IC50 (EHMT1; read-out: EHMT1 PEP (IC50 μM)) [µM] | IC50 (EHMT1; EHMT1 PEP (IC50 μM)) [µM]
1 | COc1ccc(Nc2nc(C)cc(NCC3CCN(C(C)=O)CC3)n2)cc1OCCCN1CCCC1 [Compound 19, 1-(4-(((2-((4-methoxy-3-(3-(pyrrolidin-1-yl)propoxy)phenyl)amino)-6-methylpyrimidin-4-yl)amino)methyl)piperidin-1-yl)ethan-1-one] | < 0.1 | < 0.1 | 
2 | CNc1ccnc(Nc2cccc(OC[C@@H](O)CN3CCCC3)c2)n1 [Compound 253] | > 10 | > 10 | 
3 | COc1ccc(Nc2nccc(NCC3CCNCC3)n2)cc1CCNCC1CCCC1 [Compound 17, N^2-(3-(2-((cyclopentylmethyl)amino)ethyl)-4-methoxyphenyl)-N^4-(piperidin-4-ylmethyl)pyrimidine-2,4-diamine] | 0.1 to 1 | 0.1 to 1 | 
4 | COc1ccc(Nc2nccc(NCCCN(C)C(C)=O)n2)cc1OCCCN1CCCC1 [Compound 44] | 0.1 to 1 | 0.1 to 1 | 
5 | CNC(=O)CNc1ccnc(Nc2ccc(OC)c(OCCCN3CCCC3)c2)n1 [Compound 41] | 0.1 to 1 | 0.1 to 1 | 
6 | COc1ccc(Nc2ncc3ncn(C)c3n2)cc1OCCCN1CCCC1 [Compound 219] | > 10 | > 10 | 
7 | COc1ccc(Nc2nccc(NC(C)C)n2)cc1OCCCN1CCCC1 [Compound 20] | < 0.1 | 0.1 to 1 | 
8 | COc1ccc(Nc2nccc3[nH]ncc23)cc1OCCCN1CCCC1 [Compound 249] | > 10 | > 10 | 
9 | CNc1nccc(Nc2ccc(OC)c(OCCCN3CCCC3)c2)n1 [Compound 231] | 0.1 to 1 | 0.1 to 1 | 
10 | CNCc1cnc(Nc2ccc(OC)c(OCCCN3CCCC3)c2)nc1 [Compound 215] | > 10 | > 10 | 
11 | COc1ccc(Nc2nccc(NCc3cnn(C)c3)n2)cc1OCCCN1CCCC1 [Compound 30] | < 0.1 | 0.1 to 1 | 
12 | COc1ccc(Nc2nccc(NCC(C)(C)O)n2)cc1OCCCN1CCCC1 [Compound 42] | 0.1 to 1 | 0.1 to 1 | 
13 | COc1ccc(Nc2nccc(NCC3CCN(C)CC3)n2)cc1OCCCN1CCCC1 [Compound 32] | < 0.1 | < 0.1 | 
14 | COc1ccc(Nc2nccc(NCc3ccccn3)n2)cc1OCCCN1CCCC1 [Compound 23] | 0.1 to 1 | 0.1 to 1 | 
15 | CCc1cc(NC)nc(Nc2ccc(OC)c(OCCCN3CCCC3)c2)n1 [Compound 240] | < 0.1 | < 0.1 | 
16 | COc1ccc(Nc2ccnc(NCC3CCN(C(C)=O)CC3)n2)cc1OCCCN1CCCC1 [Compound 216] | 0.1 to 1 | 0.1 to 1 | 
17 | COc1ccc(NCCCN2CCCC2)cc1Nc1nccc(NCC2CCOCC2)n1 [Compound 228] | > 10 | > 10 | 
18 | CC(C)Nc1ccnc(Nc2cccc(OCCCN3CC[C@@H](F)C3)c2)n1 [Compound 251] | > 10 | > 10 | 
19 | CNc1cc(C)nc(Nc2ccc(OC)c(OCCCN3CCCC3)c2)n1 [Compound 205, N^2-(4-methoxy-3-(3-(pyrrolidin-1-yl)propoxy)phenyl)-N^4,6-dimethylpyrimidine-2,4-diamine] | < 0.1 |  | < 0.1

Row | SMILES | IC50 (human EHMT2 913-1193) [µM] | IC50 (EHMT1; read-out: EHMT1 PEP (IC50 μM)) [µM] | IC50 (EHMT1; EHMT1 PEP (IC50 μM)) [µM]
20 | COc1ccc(Nc2ccc3cnn(C)c3c2)cc1OCCCN1CCCC1 [Compound 217] | > 10 | > 10 | 
21 | CNc1ccnc(Nc2cccc(OCCCN3CCCC3)c2)n1 [Compound 207, N^4-methyl-N^2-(3-(3-(pyrrolidin-1-yl)propoxy)phenyl)pyrimidine-2,4-diamine] | 1 to 10 | 1 to 10 | 
22 | COc1ccc(Nc2nccc(NCCc3cccnc3)n2)cc1OCCCN1CCCC1 [Compound 37] | 0.1 to 1 | 0.1 to 1 | 
23 | COc1ccc(Nc2nccc(NCc3nc4ccccc4[nH]3)n2)cc1OCCCN1CCCC1 [Compound 31] | 0.1 to 1 | 0.1 to 1 | 
24 | COc1ccc(Nc2ccc3ncc(C)n3n2)cc1OCCCN1CCCC1 [Compound 223] | 1 to 10 | 1 to 10 | 
25 | CNc1ccnc(Nc2ccc(F)c(OCCCN3CCCC3)c2)n1 [Compound 244] | > 10 | > 10 | 
26 | COc1ccc(Nc2nccc(NCC3CCN(C(C)=O)CC3)n2)cc1OCC1CCN(C)C1 (stereo not shown) [Compound 18, 1-(4-(((2-((4-methoxy-3-((1-methylpyrrolidin-3-yl)methoxy)phenyl)amino)pyrimidin-4-yl)amino)methyl)piperidin-1-yl)ethan-1-one] | 0.1 to 1 | 0.1 to 1 | 
27 | COc1ccc(CNc2ccnc(Nc3ccc(OC)c(OCCCN4CCCC4)c3)n2)cc1 [Compound 28] | < 0.1 | < 0.1 | 
28 | COc1ccc(Nc2nccc(NCc3ccncc3)n2)cc1OCCCN1CCCC1 [Compound 24] | < 0.1 | < 0.1 | 
29 | CNc1nc(Nc2ccc(OC)c(OCCCN3CCCC3)c2)ncc1C(F)(F)F [Compound 234] | > 10 | > 10 | 
30 | CNc1ccnc(Nc2ccc(OC)c(OCCCN3CC(F)C3)c2)n1 [Compound 230] | 1 to 10 | 1 to 10 | 
31 | CNc1nc(C)cc(Nc2ccc(OC)c(OCCCN3CCCC3)c2)n1 [Compound 208] | 0.1 to 1 | 0.1 to 1 | 
32 | COc1ccc(Nc2nccc(CNC3CCOCC3)n2)cc1OCCCNc1ccccc1 [Compound 241] | > 10 | > 10 | 
33 | CNc1nc(Nc2ccc(OC)c(OCCCN3CCCC3)c2)ncc1C#N [Compound 233] | > 10 | > 10 | 
34 | COc1ccc(Nc2ccc3ncn(C)c3n2)cc1OCCCN1CCCC1 [Compound 218] | > 10 | > 10 | 
35 | COc1ccc(Nc2nccc(NCc3ccccc3)n2)cc1OCCCN1CCCC1 [Compound 21] | < 0.1 | 0.1 to 1 | 
36 | CNc1ncc(C(F)(F)F)c(Nc2ccc(OC)c(OCCCN3CCCC3)c2)n1 [Compound 235] | > 10 | > 10 | 
37 | COc1ccc(Nc2nccc(N)n2)cc1OCCCN1CCCC1 [Compound 245] | 0.1 to 1 | 0.1 to 1 | 
38 | CNc1cc(Nc2ccc(OC)c(OCCCN3CCCC3)c2)ccn1 [Compound 206] | 0.1 to 1 | 0.1 to 1 | 
